What was measured:
[1] = system: human colon cancer cell strain HT29; experiment: Cell growth inhibition test (MTT), HT29; format: cell-based; settings: HT-29, 72 h, HT29, 3 days culture, read-out: concentration exhibiting anti-cell effect (GI50)
Procedure: (§1) After a cultured cancer cell strain was treated with a test compound for a predetermined period, a cell growth inhibition test was performed by measuring the living cell count by the 3-(4,5-dimethylthiazol-2-yl)-2,5-diphenyltetrazoliumbromide (MTT) method.
(§2) Human endometrial cancer cell strain AN3CA, human ovary cancer cell strain IGROV1, and human colon cancer cell strain HT29 were seeded in a 96-well plate at 5000, 1000, and 5000 cells, respectively, per well. On the following day of seeding, a test compound having a predetermined concentration was added and the culture was continued at 37° C. in 5% CO2 for 3 days. On the final day of culture, an MTT reaction solution was added and the resulting mixture was reacted for 4 hours to form formazan by dehydrogenases contained in living cells. Subsequently, the culture broth was removed, DMSO was added to solubilize formazan, and the amount of produced formazan was determined by measuring absorbance at 540 nm using a microplate reader.
(§3) Since correlations of the amount of produced formazan and the living cell count had been confirmed, the cell growth rate was calculated by the following formula. Cell growth rate (T/C %) after addition of test compound=100×[(B−C)/(A−C)] A: Absorbance of well not containing test compound (final culture day) B: Absorbance of well containing test compound (final culture day) C: Absorbance of well immediately before addition of test compound (following day of cell seeding)
(§4) Furthermore, the cell growth rate at each concentration of serially diluted test compound solutions was obtained, and the concentration of the test compound resulting in a 50% growth rate was obtained as the GI50 value from two concentrations including 50% therebetween and the growth rates were selected.

[2] = system: human ovary cancer cell strain IGROV1; experiment: Cell growth inhibition test (MTT), IGROV1; format: cell-based; settings: IGROV-1, 72 h, IGROV1, 3 days culture, read-out: concentration exhibiting anti-cell effect (GI50)
Procedure: as §1, §2, §3, §4

[3] = system: human endometrial cancer cell strain AN3CA; experiment: Cell growth inhibition test (MTT), AN3CA; format: cell-based; settings: AN3-CA, 72 h, 3 days culture, read-out: concentration exhibiting anti-cell effect (GI50)
Procedure: as §1, §2, §3, §4

[4] = target: PI3Kα (Homo sapiens, UniProt P42336); experiment: PI3K kinase activity inhibition assay; format: biochemical; settings: Kinase-Glo Plus ATP detection, read-out: IC50 against PI3K
Chain of PI3Kα (P42336 whole entry, species assumed): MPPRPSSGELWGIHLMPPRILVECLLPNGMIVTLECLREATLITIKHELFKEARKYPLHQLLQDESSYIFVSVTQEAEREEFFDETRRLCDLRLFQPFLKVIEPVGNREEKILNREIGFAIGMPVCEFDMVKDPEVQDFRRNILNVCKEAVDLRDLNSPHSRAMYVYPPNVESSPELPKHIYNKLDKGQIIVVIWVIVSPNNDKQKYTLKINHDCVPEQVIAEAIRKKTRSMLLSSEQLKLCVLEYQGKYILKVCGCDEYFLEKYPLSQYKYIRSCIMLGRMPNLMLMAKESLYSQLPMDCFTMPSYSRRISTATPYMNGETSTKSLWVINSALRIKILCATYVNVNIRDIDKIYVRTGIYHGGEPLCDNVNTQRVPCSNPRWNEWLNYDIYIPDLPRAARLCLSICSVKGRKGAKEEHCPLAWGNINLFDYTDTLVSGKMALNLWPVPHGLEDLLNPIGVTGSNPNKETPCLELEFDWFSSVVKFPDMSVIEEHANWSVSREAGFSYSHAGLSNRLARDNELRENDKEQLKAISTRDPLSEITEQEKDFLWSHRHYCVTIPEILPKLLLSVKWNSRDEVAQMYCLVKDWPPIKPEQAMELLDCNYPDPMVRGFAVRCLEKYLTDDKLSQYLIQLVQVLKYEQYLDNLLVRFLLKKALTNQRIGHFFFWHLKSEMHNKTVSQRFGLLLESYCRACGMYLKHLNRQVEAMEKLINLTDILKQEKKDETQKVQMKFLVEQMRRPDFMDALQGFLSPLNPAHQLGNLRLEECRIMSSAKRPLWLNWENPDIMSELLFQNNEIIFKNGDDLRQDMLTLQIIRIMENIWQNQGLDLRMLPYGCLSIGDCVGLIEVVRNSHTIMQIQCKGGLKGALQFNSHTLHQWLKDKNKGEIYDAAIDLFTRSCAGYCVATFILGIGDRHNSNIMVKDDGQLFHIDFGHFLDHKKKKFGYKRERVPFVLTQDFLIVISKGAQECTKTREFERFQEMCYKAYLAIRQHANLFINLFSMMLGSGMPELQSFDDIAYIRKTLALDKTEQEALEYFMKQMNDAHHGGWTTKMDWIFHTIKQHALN
Chain of PI3Kα (P27986 whole entry partner, species assumed): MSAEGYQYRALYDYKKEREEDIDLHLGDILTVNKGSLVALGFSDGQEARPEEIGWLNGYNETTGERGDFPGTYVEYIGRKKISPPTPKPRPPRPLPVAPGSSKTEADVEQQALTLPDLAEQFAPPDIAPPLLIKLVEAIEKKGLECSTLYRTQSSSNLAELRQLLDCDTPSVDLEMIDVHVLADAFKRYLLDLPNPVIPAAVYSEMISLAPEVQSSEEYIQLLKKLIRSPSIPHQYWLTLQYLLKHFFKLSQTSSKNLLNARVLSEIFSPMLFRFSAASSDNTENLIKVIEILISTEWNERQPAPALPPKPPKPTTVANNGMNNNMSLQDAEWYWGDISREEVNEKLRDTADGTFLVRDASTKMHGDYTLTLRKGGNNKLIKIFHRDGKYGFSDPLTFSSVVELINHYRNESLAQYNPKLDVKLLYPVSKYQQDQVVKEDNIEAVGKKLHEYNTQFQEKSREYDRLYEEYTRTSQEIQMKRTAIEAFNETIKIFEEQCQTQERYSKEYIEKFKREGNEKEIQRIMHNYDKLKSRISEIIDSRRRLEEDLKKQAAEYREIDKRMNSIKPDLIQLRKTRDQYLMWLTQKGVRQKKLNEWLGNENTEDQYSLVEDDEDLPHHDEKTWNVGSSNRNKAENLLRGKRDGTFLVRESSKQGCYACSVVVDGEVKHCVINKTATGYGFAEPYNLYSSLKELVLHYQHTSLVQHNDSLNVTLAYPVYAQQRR
Procedure: PI3Kα kinase activity was determined in the presence and absence of a test compound. The test compound was dissolved in DMSO and diluted serially with an ATP solution (30 μm ATP, 50 mM HEPES, pH 7.4, 50 mM NaCl, 0.05% CHAPS, 10 mM MgCl2, and 5 mM dithiothreitol [DTT]). First, 7 μl each of the serially diluted test compound solutions was added to each well of a black 384-well plate. Subsequently, 7 μl of a phosphatidylinositol 4,5-bisphosphate (PIP2) solution (45 μm PIP2, 50 mM HEPES, pH 7.4, 50 mM NaCl, 0.05% CHAPS, 10 mM MgCl2, and 5 mM DTT) was added to each well of the 384-well plate. Finally, 7 μl of a solution containing PI3Kα (50 nM PI3Kα, 50 mM HEPES, pH 7.4, 50 mM NaCl, 0.05% CHAPS, 10 mM MgCl2, and 5 mM DTT) was added to each well of the 384-well plate to initiate a reaction. The mixture was reacted at room temperature for 2 hours and then 21 μl of the Kinase-Glo Plusreagent (Promega) was, added to each well of the 384-well plate to terminate the reaction. After the termination of the reaction, the solution was left standing for 15 minutes and then luminescence was measured with ARVO (PerkinElmer Co., Ltd.) to detect ATP remaining in the reaction solution.
The amount of ATP consumed in the reaction was obtained for each well and used as an indicator of PI3Kαkinase activity. The PI3Kα kinase activity in wells not containing the test compound was calculated by the following formula (1). Furthermore, the PI3Kα kinase activity in wells containing the test compound was calculated by the following formula (2). The PI3Kα inhibitory activity (%) of the test compound was calculated by the following formula (3). PI3Kα kinase activity in wells not containing the test compound=B−C (1) PI3Kα kinase activity in wells containing the test compound=B−P (2) PI3Kα inhibitory activity (%) of test compound=100−100×[(B−P)/(B−C)] (3) B: Measured value in wells not containing PI3Kα or the test compound C: Measured value in wells containing PI3Kα and not containing the test compound P: Measured value in wells containing PI3Kα and the test compound
Furthermore, an optimal curve was calculated with Graph Pad Prism 4 using concentrations of the serially diluted test compound solutions and PI3Kα inhibitory activity (%) at each concentration to obtain the concentration showing 50% inhibition as the IC50 value of PI3Kα inhibitory activity.

[5] = target: T1, human mTOR (His-tagged mTOR (1362C)) (Homo sapiens, UniProt P42345); experiment: mTOR kinase activity inhibition assay; format: biochemical; settings: HTRF, read-out: IC50 against mTOR
T1 construct: the 1362 to 2549 amino acid portion on the C terminus side of human mTOR; His tag (N); made in house
T1 sequence (P42345 1362-2549): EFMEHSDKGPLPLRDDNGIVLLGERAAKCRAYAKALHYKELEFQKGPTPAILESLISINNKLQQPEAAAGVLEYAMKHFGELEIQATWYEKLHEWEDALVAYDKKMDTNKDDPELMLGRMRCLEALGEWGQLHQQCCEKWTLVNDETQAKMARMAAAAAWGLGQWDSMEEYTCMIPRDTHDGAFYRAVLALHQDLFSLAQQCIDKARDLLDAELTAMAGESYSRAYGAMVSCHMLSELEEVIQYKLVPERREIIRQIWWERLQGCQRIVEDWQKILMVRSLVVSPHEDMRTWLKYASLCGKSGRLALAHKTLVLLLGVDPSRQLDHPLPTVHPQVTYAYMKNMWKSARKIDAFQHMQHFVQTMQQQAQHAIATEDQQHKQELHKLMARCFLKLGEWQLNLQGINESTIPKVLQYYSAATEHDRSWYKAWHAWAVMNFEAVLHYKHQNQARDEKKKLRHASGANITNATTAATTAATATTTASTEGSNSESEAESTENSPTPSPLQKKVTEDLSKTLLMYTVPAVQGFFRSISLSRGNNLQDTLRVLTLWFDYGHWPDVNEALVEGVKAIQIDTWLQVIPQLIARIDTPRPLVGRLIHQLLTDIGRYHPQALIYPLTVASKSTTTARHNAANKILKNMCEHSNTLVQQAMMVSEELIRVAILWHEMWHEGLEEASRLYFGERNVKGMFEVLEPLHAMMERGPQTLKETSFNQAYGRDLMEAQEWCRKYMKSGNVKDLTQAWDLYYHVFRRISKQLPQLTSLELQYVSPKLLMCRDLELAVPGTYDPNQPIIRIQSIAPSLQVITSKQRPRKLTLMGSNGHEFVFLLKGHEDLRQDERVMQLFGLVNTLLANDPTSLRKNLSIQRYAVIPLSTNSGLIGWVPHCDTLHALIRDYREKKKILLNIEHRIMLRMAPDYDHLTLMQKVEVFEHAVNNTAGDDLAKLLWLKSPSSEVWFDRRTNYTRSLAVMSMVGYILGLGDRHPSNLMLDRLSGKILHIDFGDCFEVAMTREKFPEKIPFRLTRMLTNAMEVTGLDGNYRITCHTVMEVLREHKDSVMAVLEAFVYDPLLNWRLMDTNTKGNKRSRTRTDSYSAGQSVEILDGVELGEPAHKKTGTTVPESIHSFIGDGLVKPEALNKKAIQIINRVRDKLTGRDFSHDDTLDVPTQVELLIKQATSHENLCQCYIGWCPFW
Procedure: The mTOR kinase activity was determined in the presence and absence of a test compound. A substrate peptide is phosphorylated by mTOR kinase activity. A complex of streptavidin-XL665 and anti-phosphorylated S6K (Thr389) antibody-anti-mouse IgG-cryptate binds to this phosphorylated peptide. At this time, irradiation of excitation light induces transfer of fluorescence resonance energy from the excited cryptate to XL665, emitting fluorescence at 665 nm. Utilizing this principle, mTOR kinase activity was detected. When the mTOR inhibitor is present, phosphorylation of a substrate peptide is inhibited, and the biding of the above-mentioned complex to the substrate peptide is inhibited.
A His tag was introduced into the N terminus end of the 1362 to 2549 amino acid portion on the C terminus side of human mTOR, and a cell line was prepared, so that His-tagged mTOR should be constantly expressed in a HEK293 cell. A cell lysate was prepared from this HEK293 cell which constantly expressed His-tagged mTOR (1362C), and a crude product of His-tagged mTOR (1362C) was obtained by a usual method utilizing His tag.
Subsequently, an mTOR enzyme solution was prepared which contained the above-mentioned His-tagged mTOR (1362C) enzyme and 8 μg/ml biotinylated peptide (Biotin-Ahx-[…]-amide [Sigma]), as well as 50 mM HEPES (pH 7.5), 20 mM MnCl2, 1 mg/ml BSA, a suitable amount of protease inhibitor cocktail (Complete EDTA free, Roche Ltd.), 100 ng/ml calyculin A, and 4 μg/ml cantharidin as other components.
The test compound was dissolved in dimethyl sulfoxide (DMSO) and serially diluted with 20 μm ATP solution (50 mM HEPES (pH 7.5), 20 μM ATP) to obtain concentrations required for the assay. 5 μl of this compound solution was added to each well of a 384-well small volume white plate manufactured by Greiner Bio-One Co., Ltd.
5 μl of the mTOR enzyme solution was added to the above-mentioned well containing the test compound and the resulting mixture was left standing for 3 hours room temperature to proceed an enzymatic reaction.
The same procedure was performed using a solution obtained by dissolving DMSO in 20 μM ATP solution as a positive control and a solution obtained by dissolving DMSO in 50 mM HEPES buffer (pH 7.5) as a negative control.
After the enzymatic reaction, 5 μl each of an europium solution (a solution obtained by dissolving anti-mouse IgG-cryptate [SCETI Medical Labo K.K.] and anti-phosphorylation S6K [Thr389] antibody [Cell Signaling Technology Inc.] in 50 mM HEPES [pH 7.5], 100 mM EDTA, and 1.5 mg/ml BSA) and an XL665 solution (a solution obtained by dissolving Streptavidin-XL 665 [SCETI Medical Labo K.K.] in 50 mM HEPES [pH 7.5], 100 mM EDTA, 0.8 M KF, and 1.5 mg/ml BSA) were added in this order and mixed and the resulting mixture was left standing overnight at 4° C. On the following day, the mixture was returned to room temperature and then irradiated with 337-nm excitation light and fluorescence at 620 and 665 nm was measured with RUBYstar (BMG LABTECH JAPAN Ltd.).
mTOR inhibitory activity (%) was calculated using the ratio calculated from the measured values as an indicator of enzyme activity. Here, the ratio was calculated by the following formula (1). Ratio=10,000×fluorescence at 665 nm/fluorescence at 620 nm (1)
mTOR enzyme inhibitory activity (%) was calculated by the following formula (2). mTOR enzyme inhibitory activity (%)=100×[(P−S)/(P−N)] (2) P: Ratio in positive control well N: Ratio in negative control well S: Ratio in well containing the test compound
Furthermore, an optimal curve was created using the concentrations of the serially diluted test compound solutions and mTOR enzyme inhibitory activity (%) at each concentration to obtain the concentration showing 50% inhibition as the IC50 value of mTOR enzyme inhibitory activity.

Row | Compound | GI50 [1] [µM] | GI50 [2] [µM] | GI50 [3] [µM] | IC50 [4] [µM] | IC50 [5] [µM]
1 | Nc1ncc(-c2nc(N3CCOCC3)c3nc(N4CCOCC4)n(CC4CC4)c3n2)cn1 [Example 20, 5-[9-(Cyclopropylmethyl)-6,8-dimorpholin-4-yl-9H-purin-2-yl]pyrimidin-2-amine] | ≤ 5 | ≤ 5 | ≤ 5 | 0.01 to 0.02 | 0.03 to 0.1
2 | CN(C)CCNc1nc2c(N3CCOCC3)nc(-c3cnc(N)nc3)nc2n1CC1CC1 [Example 28, N′-[2-(2-Aminopyrimidin-5-yl)-9-(cyclopropylmethyl)-6-morpholin-4-yl-9H-purin-8-yl]-N,N-dimethylethane-1,2-diamine] | ≤ 5 | ≤ 5 | ≤ 5 | 0.01 to 0.02 | 0.1 to 0.5
3 | CC(=O)N1CCN(c2nc3c(N4CCOCC4)nc(-c4cnc(N)nc4)nc3n2CC(F)(F)F)CC1 [Example 9, 5-[8-(4-Acetylpiperazin-1-yl)-6-morpholin-4-yl-9-(2,2,2-trifluoroethyl)-9H-purin-2-yl]pyrimidin-2-amine] | ≤ 5 | ≤ 5 | ≤ 5 | 0.01 to 0.02 | < 0.01
4 | Nc1ncc(-c2nc(N3CCOCC3)c3nc(NCCN4CCOCC4)n(CC4CC4)c3n2)cn1 [Example 29, 2-(2-Aminopyrimidin-5-yl)-9-(cyclopropylmethyl)-6-morpholin-4-yl-N-(2-morpholin-4-ylethyl)-9H-purin-8-amine] | ≤ 5 | ≤ 5 | ≤ 5 | 0.01 to 0.02 | 0.1 to 0.5
5 | CNc1ncc(-c2nc(N3CCOCC3)c3nc(N4CCN(S(C)(=O)=O)CC4)n(CC4CCOC4)c3n2)cn1 (centres unmarked) [Example 25, N-Methyl-5-{8-[4-(methylsulfonyl)piperazin-1-yl]-6-morpholin-4-yl-9-(tetrahydrofuran-3-ylmethyl)-9H-purin-2-yl}pyrimidin-2-amine] | ≤ 5 | ≤ 5 | ≤ 5 | 0.02 to 0.05 | 0.03 to 0.1
6 | Cc1nc(N)ncc1-c1nc(N2CCOCC2)c2nc(NCCNS(C)(=O)=O)n(CC3CC3)c2n1 [Example 32, N-(2-{[2-(2-Amino-4-methylpyrimidin-5-yl)-9-(cyclopropylmethyl)-6-morpholin-4-yl-9H-purin-8-yl]amino}ethyl)methanesulfonamide] | ≤ 5 | ≤ 5 | ≤ 5 | 0.02 to 0.05 | ≥ 0.5
7 | Cc1nc(N)ncc1-c1nc(N2CCOCC2)c2nc(N3C[C@@H](C)N[C@@H](C)C3)n(CC3CC3)c2n1 [Example 15, 5-[9-(Cyclopropylmethyl)-8-(cis-3,5-dimethylpiperazin-1-yl)-6-morpholin-4-yl-9H-purin-2-yl]-4-methylpyrimidin-2-amine] | ≤ 5 | ≤ 5 | ≤ 5 | 0.02 to 0.05 | 0.1 to 0.5
8 | CNc1ncc(-c2nc(N3CCOCC3)c3nc(N4CCOCC4)n(CC4CC4)c3n2)cn1 [Example 39, 5-[9-(Cyclopropylmethyl)-6,8-dimorpholin-4-yl-9H-purin-2-yl]-N-methylpyrimidin-2-amine] | ≤ 5 | ≤ 5 | ≤ 5 | < 0.01 | 0.03 to 0.1
9 | C[C@@H]1CN(c2nc3c(N4CCOCC4)nc(-c4cnc(N)nc4)nc3n2CC(F)(F)F)CCN1C(=O)CO [Example 126, 2-{(2R)-4-[2-(2-Aminopyrimidin-5-yl)-6-morpholin-4-yl-9-(2,2,2-trifluoroethyl)-9H-purin-8-yl]-2-methylpiperazin-1-yl}-2-oxoethanol] | ≤ 5 | ≤ 5 | ≤ 5 | < 0.01 | < 0.01
10 | Cc1nc(N(C)C)ncc1-c1nc(N2CCOCC2)c2nc(N3CCN(S(C)(=O)=O)CC3)n(CC3CC3)c2n1 [Example 44, 5-{9-(Cyclopropylmethyl)-8-[4-(methylsulfonyl)piperazin-1-yl]-6-morpholin-4-yl-9H-purin-2-yl}-N,N,4-trimethylpyrimidin-2-amine] | – | – | – | – | ≥ 0.5
11 | Cc1nc(N)ncc1-c1nc(N2CCOCC2)c2nc(N3CCC(C(N)=O)CC3)n(CC3CC3)c2n1 [Example 47, 1-[2-(2-Amino-4-methylpyrimidin-5-yl)-9-(cyclopropylmethyl)-6-morpholin-4-yl-9H-purin-8-yl]piperidine-4-carboxamide methanesulfonate] | – | – | – | 0.01 to 0.02 | –

— patent US8309546B2, “Morpholinopurine derivatives” (Daiichi Sankyo Company, Limited, priority 2008, dated 2012)
